Experimental data: BindingDB's records for doi:10.1021/jm020056z (University of Newcastle, 2002)

Experiments:
[1] = molecular target: T1, Cyclin-A2 [171-432]/Cyclin-dependent kinase 2 (Homo sapiens, UniProt P24941); assay: Kinase Inhibition Assay
T1 construct: 171-432

[2] = molecular target: Cyclin-dependent kinase 1/G2/mitotic-specific cyclin-B (Marthasterias glacialis, UniProt P15206+Q9DGD3); assay: Kinase Inhibition Assay
Chain of Cyclin-dependent kinase 1/G2/mitotic-specific cyclin-B (Q9DGD3 whole entry): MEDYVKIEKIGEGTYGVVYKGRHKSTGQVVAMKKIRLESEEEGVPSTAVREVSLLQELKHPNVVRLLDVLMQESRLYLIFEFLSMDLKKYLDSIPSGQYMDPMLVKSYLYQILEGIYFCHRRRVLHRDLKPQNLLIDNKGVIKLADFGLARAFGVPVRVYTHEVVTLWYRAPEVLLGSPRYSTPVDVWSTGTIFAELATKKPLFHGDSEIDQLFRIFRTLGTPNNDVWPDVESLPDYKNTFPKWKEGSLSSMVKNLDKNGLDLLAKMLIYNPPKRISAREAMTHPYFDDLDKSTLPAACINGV
Chain of Cyclin-dependent kinase 1/G2/mitotic-specific cyclin-B (P15206 whole entry): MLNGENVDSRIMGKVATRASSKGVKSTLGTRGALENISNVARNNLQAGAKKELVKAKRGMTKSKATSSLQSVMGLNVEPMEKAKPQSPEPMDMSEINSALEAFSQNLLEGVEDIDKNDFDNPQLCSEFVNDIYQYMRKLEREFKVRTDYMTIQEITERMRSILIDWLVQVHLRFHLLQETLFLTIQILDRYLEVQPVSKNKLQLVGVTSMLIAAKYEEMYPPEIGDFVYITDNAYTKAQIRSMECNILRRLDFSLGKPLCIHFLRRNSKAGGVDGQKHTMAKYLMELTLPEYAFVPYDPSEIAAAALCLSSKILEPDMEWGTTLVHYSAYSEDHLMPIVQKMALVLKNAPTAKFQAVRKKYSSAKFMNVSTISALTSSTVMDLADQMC

| Structure (SMILES) | IC50 [1] | IC50 [2] |
| --- | --- | --- |
| Nc1nc(OCC2CC=CCC2)c2[nH]cnc2n1 (stereo not drawn) | 16 µM | – |
| CCOC(C)(COc1nc(N)nc2[nH]cnc12)OCC | 33 µM | 36 µM |
